# Data published in ChEMBL document CHEMBL2151017, “Inhibition of α-glucosidase and α-amylase by diaryl derivatives of imidazole-thione and 1,2,4-triazole-thiol” (Eur J Med Chem, 2011).
# pIC50, pKi: −log10 of the molar value. Active and inactive are the calls of the source. No cut-off for these calls is given here.
# Assays:
# Oryctolagus cuniculus [1] = experiment: In vivo inhibition of Spanish V-line rabbit liver alpha-glucosidase assessed as specific enzyme activity per mg protein using maltose as substrate at 10% LD50, po after 96 hrs; type: functional
# Oryctolagus cuniculus [2] = experiment: In vivo inhibition of Spanish V-line rabbit liver alpha-glucosidase assessed as specific enzyme activity per mg protein using maltose as substrate at 10% LD50, po after 120 hrs; type: functional
# Oryctolagus cuniculus [3] = species: Oryctolagus cuniculus; experiment: Inhibition of Spanish V-line rabbit liver alpha-glucosidase using maltose as substrate assessed per mg protein at 48 uM by Lineweaver-Burk plot ( RVb = 53 +/- 5 10^-3 uM/min/mg protein )
# Oryctolagus cuniculus [4] = species: Oryctolagus cuniculus; experiment: Inhibition of Spanish V-line rabbit liver alpha-amylase using starch as substrate assessed per mg protein at 48 uM by Lineweaver-Burk plot ( RVb = 9.0 +/- 0.8 10^-3 uM/min/mg protein )
# [5] = Inhibition of Spanish V-line rabbit liver alpha-glucosidase using maltose as substrate after 5 mins by spectrophotometry; parameters: species or system Oryctolagus cuniculus
# Oryctolagus cuniculus [6] = experiment: In vivo inhibition of Spanish V-line rabbit liver alpha-glucosidase assessed as specific enzyme activity per mg protein using maltose as substrate at 10% LD50, po after 48 hrs; type: functional
# Oryctolagus cuniculus [7] = experiment: In vivo inhibition of Spanish V-line rabbit liver alpha-amylase assessed as specific enzyme activity per mg protein using starch as substrate at 10% LD50, po after 48 hrs; type: functional
# Oryctolagus cuniculus [8] = experiment: In vivo inhibition of Spanish V-line rabbit liver alpha-amylase assessed as specific enzyme activity per mg protein using starch as substrate at 10% LD50, po after 96 hrs; type: functional
# Oryctolagus cuniculus [9] = experiment: In vivo inhibition of Spanish V-line rabbit liver alpha-amylase assessed as specific enzyme activity per mg protein using starch as substrate at 10% LD50, po after 24 hrs; type: functional
# Oryctolagus cuniculus [10] = species: Oryctolagus cuniculus; experiment: Non-competitive inhibition of Spanish V-line rabbit liver alpha-amylase using starch as substrate
# Oryctolagus cuniculus [11] = experiment: In vivo inhibition of Spanish V-line rabbit liver alpha-amylase assessed as specific enzyme activity per mg protein using starch as substrate at 10% LD50, po after 72 hrs; type: functional
# [12] = Inhibition of Spanish V-line rabbit liver alpha-amylase using starch as substrate after 5 mins by spectrophotometry; parameters: species or system Oryctolagus cuniculus
# Oryctolagus cuniculus [13] = species: Oryctolagus cuniculus; experiment: Inhibition of Spanish V-line rabbit liver alpha-amylase using starch as substrate assessed per mg protein at 64 uM by Lineweaver-Burk plot ( RVb = 9.0 +/- 0.8 10^-3 uM/min/mg protein )
# Oryctolagus cuniculus [14] = species: Oryctolagus cuniculus; experiment: Inhibition of Spanish V-line rabbit liver alpha-glucosidase using maltose as substrate assessed per mg protein at 16 uM by Lineweaver-Burk plot ( RVb = 53 +/- 5 10^-3 uM/min/mg protein )
# [15] = Competitive inhibition of Spanish V-line rabbit liver alpha-glucosidase using maltose as substrate by Lineweaver-Burk plot analysis; parameters: species or system Oryctolagus cuniculus
# [16] = Non-competitive inhibition of Spanish V-line rabbit liver alpha-amylase using starch as substrate by Lineweaver-Burk plot analysis; parameters: species or system Oryctolagus cuniculus
# [17] = Toxicity in po dosed Spanish V-line rabbit assessed as mortality after 24 hrs; type: organism-based, Oryctolagus cuniculus; conditions: in vivo
# Oryctolagus cuniculus [18] = experiment: In vivo inhibition of Spanish V-line rabbit liver alpha-amylase assessed as specific enzyme activity per mg protein using starch as substrate at 10% LD50, po after 16 hrs; type: functional
# Oryctolagus cuniculus [19] = species: Oryctolagus cuniculus; experiment: Reversible Inhibition of Spanish V-line rabbit liver alpha-glucosidase using maltose as substrate compound preincubated for 60 mins by dialysis method
# Oryctolagus cuniculus [20] = experiment: In vivo inhibition of Spanish V-line rabbit liver alpha-glucosidase assessed as specific enzyme activity per mg protein using maltose as substrate at 10% LD50, po after 24 hrs; type: functional
# Oryctolagus cuniculus [21] = experiment: In vivo inhibition of alpha-amylase in po dosed Spanish V-line rabbit using starch as substrate at after 24 hrs; type: functional, organism-based
# Oryctolagus cuniculus [22] = experiment: In vivo inhibition of Spanish V-line rabbit liver alpha-amylase assessed as specific enzyme activity per mg protein using starch as substrate at 10% LD50, po after 120 hrs; type: functional
# Oryctolagus cuniculus [23] = experiment: In vivo inhibition of Spanish V-line rabbit liver alpha-glucosidase assessed as specific enzyme activity per mg protein using maltose as substrate at 10% LD50, po after 72 hrs; type: functional
# [24] = Competitive inhibition of Spanish V-line rabbit liver alpha-glucosidase using maltose as substrate by Dixon plot analysis; parameters: species or system Oryctolagus cuniculus
# Oryctolagus cuniculus [25] = experiment: In vivo inhibition of Spanish V-line rabbit alpha-amylase using starch as substrate at 25% LD50, po after 24 hrs relative to control; type: functional
# Oryctolagus cuniculus [26] = species: Oryctolagus cuniculus; experiment: Inhibition of Spanish V-line rabbit liver alpha-glucosidase using maltose as substrate assessed per mg protein at 32 uM by Lineweaver-Burk plot ( RVb = 53 +/- 5 10^-3 uM/min/mg protein )
# Oryctolagus cuniculus [27] = experiment: In vivo inhibition of Spanish V-line rabbit liver alpha-amylase assessed as specific enzyme activity per mg protein using starch as substrate at 10% LD50, po after 8 hrs; type: functional
# Oryctolagus cuniculus [28] = species: Oryctolagus cuniculus; experiment: Reversible Inhibition of Spanish V-line rabbit liver alpha-amylase using starch as substrate compound preincubated for 60 mins by dialysis method
# Oryctolagus cuniculus [29] = experiment: In vivo inhibition of Spanish V-line rabbit liver alpha-glucosidase assessed as specific enzyme activity per mg protein using maltose as substrate at 10% LD50, po after 8 hrs; type: functional
# Oryctolagus cuniculus [30] = species: Oryctolagus cuniculus; experiment: Inhibition of Spanish V-line rabbit liver alpha-glucosidase using maltose as substrate assessed per mg protein at 64 uM by Lineweaver-Burk plot ( RVb = 53 +/- 5 10^-3 uM/min/mg protein )
# Oryctolagus cuniculus [31] = species: Oryctolagus cuniculus; experiment: Inhibition of Spanish V-line rabbit liver alpha-amylase using starch as substrate assessed per mg protein at 32 uM by Lineweaver-Burk plot ( RVb = 9.0 +/- 0.8 10^-3 uM/min/mg protein )
# Oryctolagus cuniculus [32] = experiment: In vivo inhibition of Spanish V-line rabbit alpha-glucosidase using maltose as substrate at 25% LD50, po after 24 hrs relative to control; type: functional
# Oryctolagus cuniculus [33] = species: Oryctolagus cuniculus; experiment: Inhibition of Spanish V-line rabbit liver alpha-amylase using starch as substrate assessed per mg protein at 16 uM by Lineweaver-Burk plot ( RVb = 9.0 +/- 0.8 10^-3 uM/min/mg protein )
# Oryctolagus cuniculus [34] = experiment: In vivo inhibition of Spanish V-line rabbit liver alpha-glucosidase assessed as specific enzyme activity per mg protein using maltose as substrate at 10% LD50, po after 16 hrs; type: functional
# Oryctolagus cuniculus [35] = species: Oryctolagus cuniculus; experiment: Competitive inhibition of Spanish V-line rabbit liver alpha-glucosidase using maltose as substrate
# [36] = Non-competitive inhibition of Spanish V-line rabbit liver alpha-amylase using starch as substrate by Dixon plot analysis; parameters: species or system Oryctolagus cuniculus
# Oryctolagus cuniculus [37] = experiment: In vivo inhibition of alpha-glucosidase in po dosed Spanish V-line rabbit using maltose as substrate after 24 hrs; type: functional, organism-based
# [38] = Non-competitive inhibition of Spanish V-line rabbit liver alpha-glucosidase using maltose as substrate by Lineweaver-Burk plot analysis; parameters: species or system Oryctolagus cuniculus
# Oryctolagus cuniculus [39] = species: Oryctolagus cuniculus; experiment: Inhibition of Spanish V-line rabbit liver alpha-amylase using starch as substrate assessed per mg protein at 12 uM by Lineweaver-Burk plot ( RVb = 9.0 +/- 0.8 10^-3 uM/min/mg protein )
# Oryctolagus cuniculus [40] = species: Oryctolagus cuniculus; experiment: Inhibition of Spanish V-line rabbit liver alpha-amylase using starch as substrate assessed per mg protein at 24 uM by Lineweaver-Burk plot ( RVb = 9.0 +/- 0.8 10^-3 uM/min/mg protein )
# Oryctolagus cuniculus [41] = species: Oryctolagus cuniculus; experiment: Inhibition of Spanish V-line rabbit liver alpha-glucosidase using maltose as substrate assessed per mg protein at 48 uM by Lineweaver-Burk plot ( RVb = 55 +/- 5.2 10^-3 uM/min/mg protein )
# Oryctolagus cuniculus [42] = species: Oryctolagus cuniculus; experiment: Inhibition of Spanish V-line rabbit liver alpha-glucosidase using maltose as substrate assessed per mg protein at 24 uM by Lineweaver-Burk plot ( RVb = 55 +/- 5.2 10^-3 uM/min/mg protein )
# Oryctolagus cuniculus [43] = species: Oryctolagus cuniculus; experiment: Non-competitive inhibition of Spanish V-line rabbit liver alpha-glucosidase using maltose as substrate
# [44] = Non-competitive inhibition of Spanish V-line rabbit liver alpha-glucosidase using maltose as substrate by Dixon plot analysis; parameters: species or system Oryctolagus cuniculus
# Oryctolagus cuniculus [45] = species: Oryctolagus cuniculus; experiment: Inhibition of Spanish V-line rabbit liver alpha-glucosidase using maltose as substrate assessed per mg protein at 12 uM by Lineweaver-Burk plot ( RVb = 55 +/- 5.2 10^-3 uM/min/mg protein )
# Oryctolagus cuniculus [46] = species: Oryctolagus cuniculus; experiment: Inhibition of Spanish V-line rabbit liver alpha-glucosidase using maltose as substrate assessed per mg protein at 36 uM by Lineweaver-Burk plot ( RVb = 55 +/- 5.2 10^-3 uM/min/mg protein )
# Oryctolagus cuniculus [47] = species: Oryctolagus cuniculus; experiment: Inhibition of Spanish V-line rabbit liver alpha-amylase using starch as substrate assessed per mg protein at 36 uM by Lineweaver-Burk plot ( RVb = 9.0 +/- 0.8 10^-3 uM/min/mg protein )
# Oryctolagus cuniculus [48] = species: Oryctolagus cuniculus; experiment: Inhibition of Spanish V-line rabbit liver alpha-glucosidase using maltose as substrate assessed per mg protein at 32 uM by Lineweaver-Burk plot ( RVb = 55 +/- 5 10^-3 uM/min/mg protein )
# Oryctolagus cuniculus [49] = species: Oryctolagus cuniculus; experiment: Inhibition of Spanish V-line rabbit liver alpha-glucosidase using maltose as substrate assessed per mg protein at 64 uM by Lineweaver-Burk plot ( RVb = 55 +/- 5 10^-3 uM/min/mg protein )
# Oryctolagus cuniculus [50] = species: Oryctolagus cuniculus; experiment: Inhibition of Spanish V-line rabbit liver alpha-glucosidase using maltose as substrate assessed per mg protein at 16 uM by Lineweaver-Burk plot ( RVb = 55 +/- 5 10^-3 uM/min/mg protein )
# Oryctolagus cuniculus [51] = species: Oryctolagus cuniculus; experiment: Inhibition of Spanish V-line rabbit liver alpha-amylase using starch as substrate
# Oryctolagus cuniculus [52] = species: Oryctolagus cuniculus; experiment: Inhibition of Spanish V-line rabbit liver alpha-glucosidase using maltose as substrate assessed per mg protein at 48 uM by Lineweaver-Burk plot ( RVb = 55 +/- 5 10^-3 uM/min/mg protein )
SMILES,Activity (Oryctolagus cuniculus [1]) [µM/min],Activity (Oryctolagus cuniculus [2]) [µM/min],Vmax (Oryctolagus cuniculus [4]) [nM/min],pIC50 [5],Activity (Oryctolagus cuniculus [6]) [µM/min],Activity (Oryctolagus cuniculus [7]) [µM/min],Activity (Oryctolagus cuniculus [8]) [µM/min],Activity (Oryctolagus cuniculus [9]) [µM/min],Activity (Oryctolagus cuniculus [11]) [µM/min],LD50 at 24 h [17] [mg/kg],Activity (Oryctolagus cuniculus [18]) [µM/min],inhibition (Oryctolagus cuniculus [19]),Activity (Oryctolagus cuniculus [20]) [µM/min],inhibition (Oryctolagus cuniculus [21]),Activity (Oryctolagus cuniculus [22]) [µM/min],Activity (Oryctolagus cuniculus [23]) [µM/min],inhibition (INH) (Oryctolagus cuniculus [25]) [%],Activity (Oryctolagus cuniculus [27]) [µM/min],inhibition (Oryctolagus cuniculus [28]),Activity (Oryctolagus cuniculus [29]) [µM/min],other results
Sc1nnc(-c2ccccc2)n1-c1ccccc1,19.8,19.9,5.4,4.17,16.1,4,4.6,3.7,4.3,107,4.1,Active,15.4,Dose-dependent effect,4.7,18.5,46,4.5,Active,18.6,Vmax (Oryctolagus cuniculus [3]): 16.6 nM/min; inhibition (Oryctolagus cuniculus [10]): Dose-dependent effect; pIC50 [12]: 4.14; Vmax (Oryctolagus cuniculus [13]): 5.3 nM/min; Vmax (Oryctolagus cuniculus [14]): 20 nM/min; pKi [15]: 4.38; pKi [16]: 4.14; pKi [24]: 4.42; Vmax (Oryctolagus cuniculus [26]): 18 nM/min; Vmax (Oryctolagus cuniculus [30]): 12.5 nM/min; Vmax (Oryctolagus cuniculus [31]): 6.3 nM/min; inhibition (INH) (Oryctolagus cuniculus [32]): 50%; Vmax (Oryctolagus cuniculus [33]): 8 nM/min; Activity (Oryctolagus cuniculus [34]): 16.7 µM/min; inhibition (Oryctolagus cuniculus [35]): Dose-dependent effect; pKi [36]: 4.19; inhibition (Oryctolagus cuniculus [37]): Dose-dependent effect
S=C1N=C(c2ccccc2)C(c2ccccc2)=N1,19.3,23.5,5.5,4.25,15.6,2.9,4.3,2.3,3.3,204,3.1,Active,14.3,Dose-dependent effect,4.4,16.9,53,3.8,Active,17.6,inhibition (Oryctolagus cuniculus [10]): Dose-dependent effect; pIC50 [12]: 4.33; pKi [38]: 4.46; Vmax (Oryctolagus cuniculus [39]): 8.3 nM/min; Vmax (Oryctolagus cuniculus [40]): 7.1 nM/min; pKi [16]: 4.20; Vmax (Oryctolagus cuniculus [41]): 2.4 nM/min; Vmax (Oryctolagus cuniculus [42]): 33 nM/min; inhibition (Oryctolagus cuniculus [43]): Dose-dependent effect; pKi [44]: 4.37; inhibition (INH) (Oryctolagus cuniculus [32]): 62%; Activity (Oryctolagus cuniculus [34]): 15.2 µM/min; pKi [36]: 4.22; Vmax (Oryctolagus cuniculus [45]): 41 nM/min; inhibition (Oryctolagus cuniculus [37]): Dose-dependent effect; Vmax (Oryctolagus cuniculus [46]): 27 nM/min; Vmax (Oryctolagus cuniculus [47]): 6.3 nM/min
Oc1ccccc1-c1nnc(S)n1-c1ccccc1,16.2,18.8,9.5,3.98,14.2,4.4,4.8,4.3,4.6,155,4.4,Active,13.1,Dose-dependent effect,5.1,15.6,27,4.8,Active,15.6,Vmax (Oryctolagus cuniculus [48]): 15.6 nM/min; Vmax (Oryctolagus cuniculus [13]): 8.9 nM/min; Vmax (Oryctolagus cuniculus [49]): 10.2 nM/min; pKi [24]: 4.29; Vmax (Oryctolagus cuniculus [50]): 16.6 nM/min; Vmax (Oryctolagus cuniculus [31]): 9.2 nM/min; inhibition (INH) (Oryctolagus cuniculus [32]): 57%; Vmax (Oryctolagus cuniculus [33]): 9.3 nM/min; Activity (Oryctolagus cuniculus [34]): 14.2 µM/min; inhibition (Oryctolagus cuniculus [35]): Dose-dependent effect; inhibition (Oryctolagus cuniculus [37]): Dose-dependent effect; inhibition (Oryctolagus cuniculus [51]): Dose-dependent effect; Vmax (Oryctolagus cuniculus [52]): 12.5 nM/min
